Source: US20100093760A1, “METHODS FOR IDENTIFYING COMPOUNDS THAT MODULATE CELL SIGNALING AND METHODS EMPLOYING SUCH COMPOUNDS” (The General Hospital Corporation, priority 2006, published 2010)
“Also recorded” adds a separate entry of the source. Like-named read-outs stand apart in the source and are kept apart here.

What was measured:
zebrafish embryos [1] = type: in vivo; conditions: for % Dorsalized / Dorsalized, number of embryos / Early lethality, number of embryos / Total survivors: treatment at 3 hpf; for phenotype: 8 ng of either morpholino alone, 24 hpf
zebrafish embryos [2] = type: in vivo; conditions: zebrafish, in vivo
Experimental: According to one example of the whole animal-based screening methods of the invention, 1-2 hour old zebrafish embryos are arrayed in the wells of 96-well plates, three embryos per well. A chemical library, which is comprised of tens of thousands of diverse small molecules, is then pin-transferred into the wells at a final concentration of ˜2 to 10 uM. Embryos are observed over the course of next 24-48 hours and scored under a dissecting microscope for phenotype consistent with loss of BMP signaling (dorsalized embryos, FIG. 1) or with the loss of nodal signaling (cyclopia, FIG. 2).
Small molecule screening in zebrafish was performed as previously described (Peterson et al., Nat. Biotechnol. 22:595-599, 2004) with several modifications. Pairs of wild-type zebrafish were mated, and newly-fertilized eggs were arrayed in triplicate in 96-well plates containing E3 buffer. At 4 hours post fertilization (hpf), compounds were added to wells at 5-10 μM. Embryos were incubated at 28.5° C., and gross morphology of embryos was examined at 12, 24, and 48 hpf for dorsalization or ventralization of embryonic axis, as previously described (Mullins et al., Development 123:81-93, 1996). In total, 7,570 compounds were screened, including synthetic screening compounds (Chembridge Corporation, 5,580 small molecules) and known bioactive compounds (Microsource Discovery Systems, 1,840 small molecules and Sigma-Aldrich, 150 small molecules). For follow up studies, Compound C/Dorsomorphin and Ara-A (adenine 9-β-D-arabinofurano-side) were purchased from Sigma (St. Louis, Mo.), and C75 was purchased from EMD Biosciences (San Diego, Calif.).

[3] = system: hepcidin (HAMP) and Id1 mRNA; test: Hepcidin and Id1 mRNA qRT-PCR in Hep3B cells; type: cell-based, human
Experimental: Quantitative RT-PCR was performed for mRNA encoding Id1 or human hepcidin (HAMP) as previously described (Babitt et al., Nat. Genet. 38:531-539, 2006; Yu et al., J. Biol. Chem. 280:24443-24450, 2005), and normalized to 18S ribosomal RNA (rRNA) or β-actin mRNA levels.

MAPK p38 = test: Immunoblot of BMP4-mediated MAPK p38 phosphorylation in PASMCs; type: cell-based, murine; conditions: noggin 100-200 ng/ml pretreatment 30 minutes
[4] = system: BMP-mediated SMAD1/5/8 phosphorylation; test: Immunoblot of BMP-induced SMAD1/5/8 phosphorylation in PASMCs; type: cell-based, murine; conditions: PASMCs, noggin 100-200 ng/ml pretreatment 30 minutes
Experimental: Wild-type and BMPR-II-deficient PASMC were isolated as previously described (Yu et al., J. Biol. Chem. 280:24443-24450, 2005), and cultured in RPMI medium (Invitrogen) supplemented with 10% FBS. C2C12 cells (American Type Culture Collection, Manassas, Va.) were cultured in DMEM supplemented with glutamine and 10% FBS. HepG2 cells and Hep3B cells (ATCC) were cultured in Minimal Essential Alpha Medium with L-glutamine (α-MEM, Invitrogen) containing 10% FBS. For studies of SMAD activation in vitro, PASMC were incubated in 0.5% FCS RPMI for 24 hours, followed by preincubation with drug compounds, noggin, or vehicle for 30 minutes, followed the addition of recombinant BMPs 2, 4, 6, or 7, or TGF-β1 or Activin A (R&D Systems, Minneapolis, Minn.) for 30 minutes.
Cell extracts or tissues were mechanically homogenized in SDS-lysis buffer (62.5 mM Tris-HCl (pH 6.8), 2% SDS, 10% glycerol, 50 mM DTT, 0.01% bromophenol blue); separated by SDS-PAGE; immunoblotted with anti-phospho-SMAD1/5/8, anti-phospho-SMAD2 (Cell Signaling, Beverly, Mass.), or anti-α-tubulin (Upstate/Millipore, Billerica, Mass.) Abs; and visualized using ECL Plus (GE Healthcare, Piscataway, N.J.). Levels of immunoreactive proteins were quantitated by ImageQuant software on a Storm phosphorimager (GE Healthcare).
The statistical significance of compared measurements was measured using the student's two-tailed T-test or one-way ANOVA with Bonferroni correction. Hill plot analysis of Compound C/Dorsomorphin inhibition of SMAD1/5/8 phosphorylation was performed using GraFit software (Erithacus Software, Surrey, England).

For `NC(=O)c1ccc(-c2nc(-c3ccc4c(c3)OCO4)c(-c3ccccn3)[nH]2)cc1` [SB-431542, reference compound], the zebrafish embryo phenotype (zebrafish embryos [1]; known specific inhibitor of the TGF-β/activin/nodal branch) was “cyclopia, but not dorsalization”.

`C=C1C(=O)OC(CCCCCCCC)C1C(=O)O` (stereo not shown) [Compound C75, reference compound] was tested, and the “% Dorsalized” value (zebrafish embryos [1]; C75 4 μM) was 0%, the “Dorsalized, number of embryos” value (zebrafish embryos [1]; C75 4 μM) was 0 and the “Early lethality, number of embryos” value (zebrafish embryos [1]; C75 4 μM) was 0. The Total survivors (zebrafish embryos [1]; C75 4 μM) was 20, the “% Dorsalized” value (zebrafish embryos [1]; C75 20 μM) was 0% and the “Dorsalized, number of embryos” value (zebrafish embryos [1]; C75 20 μM) was 0. For the same molecule, the “Early lethality, number of embryos” value (zebrafish embryos [1]; C75 20 μM) was 0, the Total survivors (zebrafish embryos [1]; C75 20 μM) was 40 and the “% Dorsalized” value (zebrafish embryos [1]; C75 40 μM) was 0%. For the same molecule, the “Dorsalized, number of embryos” value (zebrafish embryos [1]; C75 40 μM) was 0, the “Early lethality, number of embryos” value (zebrafish embryos [1]; C75 40 μM) was 0 and the Total survivors (zebrafish embryos [1]; C75 40 μM) was 40. For the same molecule, the “% Dorsalized” value (zebrafish embryos [1]; C75 100 μM) was 0%, the “Dorsalized, number of embryos” value (zebrafish embryos [1]; C75 100 μM) was 0 and the “Early lethality, number of embryos” value (zebrafish embryos [1]; C75 100 μM) was 20. The Total survivors (zebrafish embryos [1]; C75 100 μM) was 0, the “% Dorsalized” value (zebrafish embryos [1]; C75 200 μM) was 0% and the “Dorsalized, number of embryos” value (zebrafish embryos [1]; C75 200 μM) was 0. The “Early lethality, number of embryos” value (zebrafish embryos [1]; C75 200 μM) was 40, the Total survivors (zebrafish embryos [1]; C75 200 μM) was 0 and the “% Dorsalized” value (zebrafish embryos [1]; C75 400 μM) was 0%. For the same molecule, the “Dorsalized, number of embryos” value (zebrafish embryos [1]; C75 400 μM) was 0, the “Early lethality, number of embryos” value (zebrafish embryos [1]; C75 400 μM) was 40 and the Total survivors (zebrafish embryos [1]; C75 400 μM) was 0. The dorsalization phenotype (zebrafish embryos [1]; C75, any concentration tested (1-100 μg/ml), from 3 hpf) was “without evidence of dorsalization”, the “dorsalization by structurally-unrelated inhibitors of AMPK activity” value (zebrafish embryos [2]) was “did not dorsalize zebrafish embryos” and the “toxicity of structurally-unrelated inhibitors of AMPK activity” value (zebrafish embryos [2]) was “non-specific toxicity such as developmental delay and death”.

`Nc1ncnc2c1ncn2[C@@H]1O[C@H](CO)[C@@H](O)[C@@H]1O` [Ara-A, adenine 9-β-D-arabinofurano-side, reference compound] was tested, and the “effect on BMP4-induced hepcidin mRNA expression” value ([3]; Ara-A 250 μM 30 minutes before BMP4 20 ng/ml) was “did not impair; also recorded: did not significantly affect”, the “lowering of baseline hepcidin expression” value ([3]; Ara-A 250 μM alone) was 40% and the “dorsalization by structurally-unrelated inhibitors of AMPK activity” value (zebrafish embryos [2]) was “did not dorsalize zebrafish embryos”. The “toxicity of structurally-unrelated inhibitors of AMPK activity” value (zebrafish embryos [2]) was “non-specific toxicity such as developmental delay and death”.

With “αB: splice-targeting morpholino against zebrafish AMPK α-subunit ortholog αB (TAAATGAACA GACTTAACTCTTCAC) (antisense TAAATGAACAGACTTAACTCTTCAC; all phosphorodiamidate morpholino (PMO)) [reference compound]” the phenotype (zebrafish embryos [1]) was “did not exhibit any phenotype”.

“αA: splice-targeting morpholino against zebrafish AMPK α-subunit ortholog αA (CACCCTGGAAAGTT TTACCTTTGAC) (antisense CACCCTGGAAAGTTTTACCTTTGAC; all phosphorodiamidate morpholino (PMO)) [reference compound]” was tested, and the phenotype (zebrafish embryos [1]) was “did not exhibit any phenotype”.

B1: BMP4: recombinant bone morphogenetic protein ligand (R&D Systems) (protein, UniProt P12644 293-408, looked up)
Bone morphogenetic protein 4: SPKHHSQRARKKNKNCRRHSLYVDFSDVGWNDWIVAPPGYQAFYCHGDCPFPLADHLNSTNHAIVQTLVNSVNSSIPKACCVPTELSAISMLYLDEYDKVVLKNYQEMVVEGCGCR
B1 was tested, and the “increase in hepcidin mRNA” value ([3]; BMP4 20 ng/ml, four hours) was 35 fold.

B2: noggin: soluble BMP antagonist; preferential inhibitor of BMP2 and BMP4 activity (protein, UniProt Q13253 28-232, looked up)
Noggin: QHYLHIRPAPSDNLPLVDLIEHPDPIFDPKEKDLNETLLRSLLGGHYDPGFMATSPPEDRPGGGGGAAGGAEDLAELDQLLRQRPSGAMPSEIKGLEFSEGLAQGKKQRLSKKLRRKLQMWLWSQTFCPVLYAWNDLGSRFWPRYVKVGSCFSKRSCSVPEGMVCKPSKSVHLTVLRWRCQRRGGQRCGWIPIQYPIISECKCSC
With B2 the “effect on BMP4-mediated phosphorylation of MAPK p38” value (MAPK p38) was “inhibited” and the “effect on BMP4-mediated phosphorylation of SMAD1/5/8” value [4] was “inhibited”.
